A word on the IC50: it is the concentration needed to halve the response being measured. Read a high IC50 as weaker potency. Broadly, the ΔTm is the change in melting temperature against a reference sample.

One test deals with T1, CAMKK2-FL (Homo sapiens, UniProt Q96RR4).
T1 construct: an enzymatic assay using the full-length protein (CAMKK2-FL); purchased Eurofins Discovery (MO, USA), assay service
Nature of the test: Radiometric enzymatic assay (Eurofins Discovery), Ca2+/Calmodulin present. The test is classed as biochemical. The note with it: 90 µM ATP; single measurement.
For `COc1cc2c(Oc3ccc(NC(=O)C4(C(=O)Nc5ccc(F)cc5)CC4)cc3F)ccnc2cc1OCCCN1CCOCC1` [Foretinib], it took 1.3 µM to reach half-maximal inhibition (IC50).

A further test deals with T2, CAMKK2-KD (kinase domain of CAMKK2) (Homo sapiens, UniProt Q96RR4).
T2 construct: the protein kinase domain (amino acids 161–449); hexahistidine (6xHis), TEV-cleavable; made in house
T2 sequence (Q96RR4 161-449): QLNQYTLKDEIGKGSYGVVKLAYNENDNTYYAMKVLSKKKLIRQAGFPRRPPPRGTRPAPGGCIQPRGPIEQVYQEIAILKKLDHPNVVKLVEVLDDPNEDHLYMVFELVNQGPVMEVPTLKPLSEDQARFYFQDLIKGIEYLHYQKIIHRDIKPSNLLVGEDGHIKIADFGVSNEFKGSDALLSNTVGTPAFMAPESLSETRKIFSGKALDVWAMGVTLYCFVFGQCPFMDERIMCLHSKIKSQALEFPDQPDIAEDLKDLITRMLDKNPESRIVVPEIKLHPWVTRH
Nature of the test: DSF thermal-shift screen, 384-well format. The test is classed as binding. The conditions noted are these: 10 µM compound, 1 µM kinase, 0.1% DMSO, single measurement. As for the experimental part:
(§1) We employed a thermal-shift assay (Differential Scanning Fluorimetry, DSF)[19] to identify compounds that can bind to the kinase domain of CAMKK2 (CAMKK2-KD). Protein thermal denaturation curves (Fig. 1A,B) were used to calculate the denaturation midpoint temperature (Tm) for the kinase domain of CAMKK2 in the presence of ligands or vehicle only (DMSO). […] DSF screens were performed on purified CAMKK2-KD using a library of commercially available, chemically diverse, ATP-competitive, kinase inhibitors.
DSF experiments in 384-well format followed a protocol previously established at the SGC-UNICAMP and described elsewhere.
The compounds, previously solubilized in DMSO, were used at 10 µM final concentration and 0.1% DMSO. Plates were sealed using optically clear films and transferred to a QuantStudio 6 qPCR instrument (Applied Biosystems). […] Protein in 0.1% DMSO was used as a reference.
(§2) For both formats, experiments were performed in singlets.
On to `Cc1[nH]nc2ccc(-c3cncc(OC[C@@H](N)Cc4ccccc4)c3)cc12` [A-674563], for which the shift in melting temperature (ΔTm) came to 4.7 °C. On to `Cc1cc(Nc2nc(N[C@@H](C)c3ccc(F)cc3)c(C#N)cc2F)[nH]n1` [AZ 960], for which the shift in melting temperature (ΔTm) at 10 µM was 4.3 °C. Consider `COc1cc(N2CCC(N)CC2)ccc1Nc1ncc(Cl)c(-c2c[nH]c3ccccc23)n1` [AZD3463], for which the thermal shift (ΔTm) came out at 9.3 °C. `C=CC(=O)Nc1cc(Nc2nccc(-c3cn(C)c4ccccc34)n2)c(OC)cc1N(C)CCN(C)C` [AZD9291]: the ΔTm at 10 µM stood at 4.1 °C.

For the compound `CCOc1ccn(-c2ccc(F)cc2)c(=O)c1C(=O)Nc1ccc(Oc2ccnc(N)c2Cl)c(F)c1` [BMS-777607], the ΔTm at 10 µM was 4.7 °C. Still for that read-out and setting: to `O=C(NCCCNc1nc(Nc2cccc(NC(=O)N3CCCC3)c2)ncc1I)c1cccs1` [BX-795] belongs 5.1 °C. Turning to `Cc1cc(CN2CCN(c3c(Br)cnc4nc(-c5ccc(N6CCN(C)CC6)cc5)[nH]c34)CC2)no1` [CCT137690], the ΔTm is 4.7 °C.

`C=CC(=O)Nc1cccc(Nc2nc(Nc3ccc(N4CCN(C(C)=O)CC4)cc3OC)ncc2C(F)(F)F)c1` [CO-1686]: the shift in melting temperature (ΔTm) at 10 µM was 4.4 °C.

Take `Cc1nc(N)sc1-c1ccnc(Nc2ccc(N3CCOCC3)cc2)n1` [CYC116]: the ΔTm at 10 µM was 4.4 °C. As for `N#CCNC(=O)c1ccc(-c2ccnc(Nc3ccc(N4CCOCC4)cc3)n2)cc1` [CYT387], the shift in melting temperature (ΔTm) at 10 µM was found to be 4.3 °C. Regarding `CO[C@@H](C(=O)N1Cc2n[nH]c(NC(=O)c3ccc(N4CCN(C)CC4)cc3)c2C1)c1ccccc1` [Danusertib], the ΔTm at 10 µM turned out to be 5.1 °C.

As to `COc1cc2c(Oc3ccc(NC(=O)C4(C(=O)Nc5ccc(F)cc5)CC4)cc3F)ccnc2cc1OCCCN1CCOCC1` [Foretinib], the thermal shift (ΔTm) at 10 µM came out at 6.3 °C. On to `CNc1nc(Nc2cnn([C@H]3CCN(C4COC4)C[C@@H]3F)c2Cl)ncc1C(F)(F)F` [GNE-9605], for which the ΔTm turned out to be 6.4 °C. As for `O=C(O)c1ccc(-c2c[nH]c3ncc(-c4ccccc4)cc23)cc1C1CCCC1` [GSK650394], the shift in melting temperature (ΔTm) at 10 µM was 16.2 °C.

As for `O=C1NC(=O)/C(=C/c2ccc3nccc(-c4ccncc4)c3c2)S1` [GSK1059615], the ΔTm at 10 µM turned out to be 4.4 °C. For the compound `CCOC(=O)c1cnc2ccc(-c3cncc(NS(=O)(=O)c4ccccc4)c3)cn12` [HS-173], the thermal shift (ΔTm) was 4.2 °C.

Turning to `CCS(=O)(=O)Nc1ccc2c(c1)/C(=C(/Nc1ccc(CN3CCCCC3)cc1)c1ccccc1)C(=O)N2` [Hesperadin], the ΔTm at 10 µM was 7.3 °C.

For `Cc1cc(Nc2ncc(Cl)c(Nc3ccccc3S(=O)(=O)C(C)C)n2)c(OC(C)C)cc1C1CCNCC1` [LDK378], the ΔTm at 10 µM amounted to 8 °C. With `Cc1cc(Nc2cc(CN3CCOCC3)c3nc(C)c(Cc4ccc(Cl)cc4F)n3n2)n[nH]1` [LY2784544], the ΔTm at 10 µM was found to be 4.3 °C. In the case of `CCN1CCN(Cc2ccc(Nc3ncc(F)c(-c4cc(F)c5nc(C)n(C(C)C)c5c4)n3)nc2)CC1` [LY2835219], the ΔTm at 10 µM came out at 6.2 °C. For `CNC(=O)c1nn(C)c2c1C(C)(C)Cc1cnc(Nc3ccc(N4CCN(C)CC4)cc3)nc1-2` [Milciclib (PHA-848125), Milciclib], the shift in melting temperature (ΔTm) at 10 µM stood at 7 °C. `CN(c1ncccc1CNc1nc(Nc2ccc3c(c2)CC(=O)N3)ncc1C(F)(F)F)S(C)(=O)=O` [PF-562271]: the shift in melting temperature (ΔTm) was determined as 4.2 °C. On to `CS(=O)(=O)c1cccc(CNc2nc(Nc3ccc4c(c3)CCC(=O)N4)ncc2C(F)(F)F)c1` [PF-573228], for which the shift in melting temperature (ΔTm) turned out to be 4.5 °C.

As to `Cc1nc(Nc2[nH]nc3c2CN(C(=O)N[C@H](CN(C)C)c2ccccc2)C3(C)C)c2sccc2n1` [PF-3758309], the ΔTm at 10 µM worked out at 4.4 °C.

`Cc1[nH]c(/C=C2\C(=O)Nc3ccc(S(=O)(=O)Cc4c(Cl)cccc4Cl)cc32)c(C)c1C(=O)N1CCC[C@@H]1CN1CCCC1` [PHA-665752]: the ΔTm at 10 µM is 4.9 °C. For the compound `Cc1ccc([N+](=O)[O-])cc1S(=O)(=O)N(C)/N=C/c1cnc2ccc(Br)cn12` [PIK-75], the ΔTm is 7.2 °C. In the case of `C1=C/COCc2cc(ccc2OCCN2CCCC2)Nc2nccc(n2)-c2cccc(c2)COC/1` [Pacritinib (SB1518), Pacritinib], the ΔTm at 10 µM worked out at 7.8 °C. On the same count and under the same terms, next, `CCOc1cc2ncc(C#N)c(Nc3ccc(F)c(Cl)c3)c2cc1NC(=O)/C=C/CN(C)C` [Pelitinib]: 4.8 °C. As to `COc1cc(C(=O)NC2CCN(C)CC2)ccc1Nc1ncc2c(n1)N(C1CCCC1)CC(F)(F)C(=O)N2C` [Ro3280], the ΔTm amounted to 4.5 °C. Take `CCS(=O)(=O)c1cccc(-c2cc(C(=O)NC3CCN(C)CC3)c(C)c3[nH]c4ncc(C)cc4c23)c1` [TAK-901]: the ΔTm at 10 µM came out at 4.7 °C. On to `C=CC(=O)Nc1cccc(Sc2nc(Nc3ccc(N4CCN(C)CC4)cc3)ncc2Cl)c1` [WZ8040], for which the thermal shift (ΔTm) was 4.8 °C.

The target in the next test is CAMKK2-KD (Homo sapiens, UniProt Q96RR4). Put plainly: Isothermal titration calorimetry (reverse titration). The note with it: individual ITC experiment, run 1; 20 °C. (In ITC the heat of successive injections is recorded.)
Sequence of CAMKK2-KD (Q96RR4 161-449): as above
Procedure: All ITC experiments described below were performed twice.
Measurements were made using a MicroCal AutoITC200 (Malvern, United Kingdom). […] Small molecule inhibitors were diluted in dialysis buffer. All ITC experiments were performed using a “reverse titration” setup in which the protein (in the syringe) was titrated into the cell containing the inhibitor. Two independent ITC measurements were performed for each compound, data for individual runs were integrated separately to obtain single isotherms, which were plotted and analyzed using Sedphat[37]. […] All measurements were made at 20 °C with mixing (1,000 rpm stirring), and used 1.5 µL injections and 180 s between each injection. NITPIC, SEDPHAT and GUSSI[37] were used to analyze and generate figures for ITC data.
On to `O=C(O)c1ccc(-c2c[nH]c3ncc(-c4ccccc4)cc23)cc1C1CCCC1` [GSK650394], for which the “ΔG Run 1” value is -46.2 kJ/mol and the “ΔH Run 1” value was -87.5 kJ/mol.

Still in this test, the particulars now being: individual ITC experiment, run 2; 20 °C.
As for `O=C(O)c1ccc(-c2c[nH]c3ncc(-c4ccccc4)cc23)cc1C1CCCC1` [GSK650394], the “ΔG Run 2” value was -45.8 kJ/mol and the “ΔH Run 2” value is -79.1 kJ/mol.

The target of another test is T2, CAMKK2-KD (kinase domain of CAMKK2). Nature of the test: DSF thermal-shift screen, 96-well format. It counts as binding. The conditions noted are these: 96-well format; 12 µM compound, 2 µM kinase, 2.5% DMSO; single measurement. The protocol: as §1
SYPRO Orange dye (Invitrogen) was used in 5X as final concentration.
Plates were sealed using optically clear films and transferred to an Mx3005p RT-PCR machine (Agilent).
as §2
For the compound `Nc1nc(Nc2ccc(S(N)(=O)=O)cc2)nn1C(=O)c1c(F)cccc1F` [Aurora/Cdk Inhibitor], the ΔTm was found to be 4.3 °C. For `Cn1cc(C2=C(c3cn(CCCSC(=N)N)c4ccccc34)C(=O)NC2=O)c2ccccc21` [BIM IX], the ΔTm was found to be 8.1 °C. On to `COc1cc2c(Nc3cc(Cl)c(OC)c(Cl)c3)c(C#N)cnc2cc1OCCCN1CCN(C)CC1` [Bosutinib isomer], for which the ΔTm amounted to 4.1 °C.

Regarding `O=C1NCCCc2c1oc1ccc(O)cc21` [CID 755673], the ΔTm came to 4.4 °C. With `c1ccc(-c2cnc(Nc3ccc(OCCN4CCCC4)cc3)s2)cc1` [Flt3 Inhibitor III], the ΔTm stood at 7.5 °C.

As for `O=C(c1ccc(Nc2nccc(-c3cc4ccccc4s3)n2)cc1)N1CCC(N2CCCC2)CC1` [IKK 16], the thermal shift (ΔTm) is 6.8 °C. Consider `O=C1Nc2ccccc2/C1=C1/Nc2ccccc2/C1=N\O` [Indirubin-3monoxime], for which the ΔTm was 5.4 °C. Same read-out and setting: to `O=C1c2ccccc2-c2n[nH]c3cccc1c23` [JNK Inhibitor II] belongs 6.8 °C; to `CC(C)n1cnc2c(Nc3cccc(Cl)c3)nc(NCCO)nc21` [NG 52 (Compound 52)], 6.8 °C; to `Cn1cc(/C=C2\C(=O)Nc3ccc(S(N)(=O)=O)cc32)c2ccccc21` [Syk Inhibitor], 9.4 °C. The same measure, in the same setting: to JAK Inhibitor I belongs 4.7 °C.

The same test, now with this note: 96-well format; 12 µM compound, 2 µM kinase, 2.5% DMSO; single measurement; read-out: ΔTm.
As to `CN1CCN(c2ccc3nc(-c4c(N)c5c(F)cccc5[nH]c4=O)[nH]c3c2)CC1` [Dovitinib], the ΔTm at 12 µM was 6.9 °C.

Turning to `C[C@@H](Oc1cc(-n2cnc3ccc(OC[C@@H](O)CO)cc32)sc1C(N)=O)c1ccccc1Cl` [GSK978744A], the ΔTm at 12 µM was found to be 4.9 °C. Consider `c1nc2nc(Nc3ccc(N4CCOCC4)cc3)nc(NC3CCCCC3)c2[nH]1` [Reversine], for which the shift in melting temperature (ΔTm) at 12 µM came out at 4.6 °C. Take `COc1ccc2c(c1)/C(=C/c1cnc[nH]1)C(=O)N2` [SU9516]: the ΔTm at 12 µM stood at 5 °C. On to `COc1cc(N2CCC(N3CCN(C)CC3)CC2)ccc1Nc1ncc(Cl)c(Nc2ccccc2S(=O)(=O)C(C)C)n1` [TAE684], for which the thermal shift (ΔTm) at 12 µM is 16.3 °C.

The same test, now with this note: read-out: ΔTm.
Consider `CN(c1ccc(NC(=O)Nc2ccc(OC(F)(F)F)cc2)cc1)c1ccnc(Nc2cccc(S(N)(=O)=O)c2)n1` [GW806742X], for which the ΔTm at 12 µM worked out at 5.8 °C.

(Values after publication PMC6848146, “Binding and structural analyses of potent inhibitors of the human Ca^2+/calmodulin dependent protein kinase kinase 2 (CAMKK2) identified from a collection of commercially-available kinase inhibitors” (Scientific Reports, 2019).)
